Data taken from PubChem BioAssay AID2060887 (Molecular Pharmacology Branch, DTP, NCI, 2025).

System: 782815-120-R-J1-PDC complex spheroid viability
Assay: Anticancer human tumor 782815-120-R-J1-PDC patient-derived colon adenocarcinoma cell line growth inhibition [RAS]
Conditions: for IC50: curve of first compound; for viability, T/C: stronger effect = lower value
Summary of the method: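 Tumour cells grown as complex spheroids with HUVEC endothelial cells and mesenchymal stem cells, treated with RAS pathway inhibitor combinations. Each agent spans half-log steps from near clinical Cmax, or 10 microM where Cmax is unknown.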

[1] = second compound 0.000949 µM, first compound 0.0316 µM
[2] = second compound 0.000949 µM, first compound 0.1 µM
[3] = second compound 0.003 µM, first compound 0.0316 µM
[4] = second compound 0.003 µM, first compound 0.1 µM
[5] = second compound 0.00949 µM, first compound 0.0316 µM
[6] = second compound 0.00949 µM, first compound 0.1 µM
[7] = second compound 0.03 µM, first compound 0.0316 µM
[8] = second compound 0.03 µM, first compound 0.1 µM
[9] = second compound 0.0949 µM, first compound 0.0316 µM
[10] = second compound 0.0949 µM, first compound 0.1 µM
[11] = second compound 0.3 µM, first compound 0.0316 µM
[12] = second compound 0.3 µM, first compound 0.1 µM
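Further: spheroids exposed to compounds for 7 days before reading.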
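Wherever viability, T/C is given: 100% = DMSO vehicle control viability.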

`CC(C)n1nc(-c2ccc3oc(N)nc3c2)c2c(N)ncnc21` + CCn1c(-c2cc(N3CCN(C)CC3)cnc2C(C)OC)c2c3cc(ccc31)-c1csc(n1)CC(NC(=O)C1CC1C)C(=O)N1CCCC(N1)C(=O)OCC(C)(C)C2 gave an IC50 (second compound 0.000949 µM) greater than 100 nM, an IC50 (second compound 0.003 µM) of 32.6 nM and an IC50 (second compound 0.00949 µM) of less than 0.316 nM. It also gave an IC50 (second compound 0.03 µM) of less than 0.316 nM, an IC50 (second compound 0.0949 µM) of less than 0.316 nM and an IC50 (second compound 0.3 µM) of less than 0.316 nM. It also gave a viability, T/C (second compound 0.000949 µM, first compound 0.000316 µM) of 79.2%, a viability, T/C (second compound 0.000949 µM, first compound 0.001 µM) of 71.7% and a viability, T/C (second compound 0.000949 µM, first compound 0.00316 µM) of 70.3%. It also gave a viability, T/C (second compound 0.000949 µM, first compound 0.01 µM) of 71.4%, a viability, T/C [1] of 65.5% and a viability, T/C [2] of 65.9%. The viability, T/C (second compound 0.003 µM, first compound 0.000316 µM) was 64.2%, the viability, T/C (second compound 0.003 µM, first compound 0.001 µM) was 57.5% and the viability, T/C (second compound 0.003 µM, first compound 0.00316 µM) was 59.6%. For the same molecule, the viability, T/C (second compound 0.003 µM, first compound 0.01 µM) was 52.9%, the viability, T/C [3] was 53.2% and the viability, T/C [4] was 40.9%. The viability, T/C (second compound 0.00949 µM, first compound 0.000316 µM) was 36.3%, the viability, T/C (second compound 0.00949 µM, first compound 0.001 µM) was 34.2% and the viability, T/C (second compound 0.00949 µM, first compound 0.00316 µM) was 35.9%. For the same molecule, the viability, T/C (second compound 0.00949 µM, first compound 0.01 µM) was 29%, the viability, T/C [5] was 27.7% and the viability, T/C [6] was 23.7%. For the same molecule, the viability, T/C (second compound 0.03 µM, first compound 0.000316 µM) was 19.4%, the viability, T/C (second compound 0.03 µM, first compound 0.001 µM) was 19.6% and the viability, T/C (second compound 0.03 µM, first compound 0.00316 µM) was 20.6%. For the same molecule, the viability, T/C (second compound 0.03 µM, first compound 0.01 µM) was 17%, the viability, T/C [7] was 14.6% and the viability, T/C [8] was 10.7%. The viability, T/C (second compound 0.0949 µM, first compound 0.000316 µM) was 15.4%, the viability, T/C (second compound 0.0949 µM, first compound 0.001 µM) was 16.2% and the viability, T/C (second compound 0.0949 µM, first compound 0.00316 µM) was 14.8%. For the same molecule, the viability, T/C (second compound 0.0949 µM, first compound 0.01 µM) was 14.2%, the viability, T/C [9] was 9.96% and the viability, T/C [10] was 6.66%. For the same molecule, the viability, T/C (second compound 0.3 µM, first compound 0.000316 µM) was 15.2%, the viability, T/C (second compound 0.3 µM, first compound 0.001 µM) was 15.5% and the viability, T/C (second compound 0.3 µM, first compound 0.00316 µM) was 12.6%. For the same molecule, the viability, T/C (second compound 0.3 µM, first compound 0.01 µM) was 12.4%, the viability, T/C [11] was 8.16% and the viability, T/C [12] was 4.66%.
For `C[C@@H](NC(=O)c1ncnc(N)c1Cl)c1ncc(C(=O)Nc2cc(C(F)(F)F)c(Cl)cn2)s1` + CCn1c(-c2cc(N3CCN(C)CC3)cnc2C(C)OC)c2c3cc(ccc31)-c1csc(n1)CC(NC(=O)C1CC1C)C(=O)N1CCCC(N1)C(=O)OCC(C)(C)C2, the IC50 (second compound 0.000949 µM) was greater than 10000 nM, the IC50 (second compound 0.003 µM) was greater than 10000 nM and the IC50 (second compound 0.00949 µM) was less than 31.6 nM. For the same molecule, the IC50 (second compound 0.03 µM) was less than 31.6 nM, the IC50 (second compound 0.0949 µM) was less than 31.6 nM and the IC50 (second compound 0.3 µM) was less than 31.6 nM. The viability, T/C [1] was 82.2%, the viability, T/C [2] was 95.5% and the viability, T/C (second compound 0.000949 µM, first compound 0.316 µM) was 76.9%. The viability, T/C (second compound 0.000949 µM, first compound 1 µM) was 73.4%, the viability, T/C (second compound 0.000949 µM, first compound 3.16 µM) was 58.8% and the viability, T/C (second compound 0.000949 µM, first compound 10 µM) was 66.8%. The viability, T/C [3] was 74.1%, the viability, T/C [4] was 69.4% and the viability, T/C (second compound 0.003 µM, first compound 0.316 µM) was 62.9%. The viability, T/C (second compound 0.003 µM, first compound 1 µM) was 60.5%, the viability, T/C (second compound 0.003 µM, first compound 3.16 µM) was 55.1% and the viability, T/C (second compound 0.003 µM, first compound 10 µM) was 54.7%. It also gave a viability, T/C [5] of 47.9%, a viability, T/C [6] of 50.3% and a viability, T/C (second compound 0.00949 µM, first compound 0.316 µM) of 47.7%. For the same molecule, the viability, T/C (second compound 0.00949 µM, first compound 1 µM) was 46.6%, the viability, T/C (second compound 0.00949 µM, first compound 3.16 µM) was 47% and the viability, T/C (second compound 0.00949 µM, first compound 10 µM) was 44.6%. For the same molecule, the viability, T/C [7] was 25.8%, the viability, T/C [8] was 33% and the viability, T/C (second compound 0.03 µM, first compound 0.316 µM) was 32%. For the same molecule, the viability, T/C (second compound 0.03 µM, first compound 1 µM) was 31.9%, the viability, T/C (second compound 0.03 µM, first compound 3.16 µM) was 37.6% and the viability, T/C (second compound 0.03 µM, first compound 10 µM) was 35.9%. The viability, T/C [9] was 19.7%, the viability, T/C [10] was 23.8% and the viability, T/C (second compound 0.0949 µM, first compound 0.316 µM) was 25.3%. The viability, T/C (second compound 0.0949 µM, first compound 1 µM) was 27.1%, the viability, T/C (second compound 0.0949 µM, first compound 3.16 µM) was 30.8% and the viability, T/C (second compound 0.0949 µM, first compound 10 µM) was 27.6%. For the same molecule, the viability, T/C [11] was 18.6%, the viability, T/C [12] was 20.7% and the viability, T/C (second compound 0.3 µM, first compound 0.316 µM) was 23.1%. The viability, T/C (second compound 0.3 µM, first compound 1 µM) was 21.9%, the viability, T/C (second compound 0.3 µM, first compound 3.16 µM) was 26.4% and the viability, T/C (second compound 0.3 µM, first compound 10 µM) was 27.9%.
